The term inhibition denotes the relative decrease from the control value, in per cent.

The subject of assay [1] is rabbit platelet aggregation by PAF. Briefly: Inhibitory activity on rabbit platelet aggregation by PAF. The assay is classed as cell-based. The conditions noted are these: Oryctolagus cuniculus, PAF 1×10^-8 M, read-out: rate of inhibition of rabbit platelet aggregation by PAF; for inhibition at 30 µM: test drug 3 × 10^-5 M; for inhibition at 3 µM: test drug 3 × 10^-6 M; for inhibition at 0.3 µM: test drug 3 × 10^-7 M; for inhibition at 1 µM: test drug 1 × 10^-6 M.

In a further assay the test system is PAF-induced death. Briefly: Prevention activity against PAF-induced death in mice. The format is in vivo, mouse (male Jc1-ICR). The note with it: for (Mice survived)/(mice employed): PAF 50 μg/kg i.v., control 3/16. How it is done:
Prevention activity against PAF-induced death in mice
The test drug was investigated for the preventive activity against shock death to be brought about within 30 min. after 50 μg/kg of PAF in the form of 0.1 ml/kg physiological saline solution was given intravenously to a male Jc1-ICR mouse. The test drug was administered intravenously 5 min. before the injection of PAF.
In accordance with the same procedure as described in Experiment Example 2, the test compounds were investigated for the preventive activity against PAF-induced death in mice.

Another assay concerns HL-60 cells. Briefly: Effect on inducing differentiation of HL-60 cells (NBT-positive cells). The format is cell-based, human. The note with it: 6 days; for Emax: Homo sapiens, HL-60, 144 h, at optimal conc., NBT-positive relative to live cells, read-out: Maximum differentiation extent: Differentiation. How it is done:
Assay of the effects on inducing differentiation of HL-60 cells (human promyelocytic leukemia cells) and Neuro-2a cells (mouse neuroblastoma cells): RPMI-1640 medium (Flow Laboratories, Inc.) supplemented with 20% fetal calf serum (M.A. […] The culture was incubated at 37° C. in a 5% CO2 incubator for 6 days. […] The reaction was allowed to proceed at 37° C. for 20 minutes. The reaction was stopped by cooling with ice, and the cells were washed by means of centrifugation, followed by collecting 3-5×10^4 cells and by subjecting to centrifugation using Cytospin centrifuge to prepare a cell smear, which was fixed with methanol and stained with Kernechtrot solution. On each cell smear, the percentage of NBT-positive cells relative to live cells, […] by examination of a minimum of 200 cells, was expressed as the differentiation extent.

Another assay relates to PAF-induced hypotension. Briefly: Restoring activity against PAF-induced hypotension. The format is in vivo, rat (male S.D.). The note with it: 3 min after PAF 1 μg/kg i.v., 1 min after test drug. How it is done: Restoring activity against PAF-induced hypotension
Male S.D. rats, aged 16 weeks, were employed.
Under anesthesia with pentobarbital, cannulas were inserted into the femoral artery and vein of rats for measurement of blood pressure and for administration of a drug, respectively. Three (3) minutes after intravenous administration of 1 μg/kg (0.25% BAS physiological saline solution; volume of 0.2 ml/kg) of PAF, a test drug (physiological saline solution; volume of 0.5 ml/kg) was administered intravenously, and blood pressure was measured for subsequent 1 hour.
The ratio of hypertension by the test drug to hypotension by PAF was taken as a restoration rate.
Restoration rate (%)=[(Blood pressure just before i.v. administration of a test drug)-(Blood pressure 1 min. after i.v. administration of a test drug)/(Blood pressure just before i.v. administration of PAF)-(Blood pressure just before i.v. administration of a test drug)]×100

[2] abbreviates: Table 4, 0.3 mg/kg i.v., control 24%.
[3] abbreviates: Table 4, 1.0 mg/kg i.v., control 24%.

Structures can show the parent of a compound that is named as a salt.

In the case of `CCCCCCCCCCCCCCCCCCNC(=O)OCC(COC(=O)N(CC1CCC[N+]1(C)CC)C(C)=O)OC` (stereo not drawn) [Example 45, 3-O-[N-Acetyl-N-(1'-ethyl-1'-methylpyrrolidinio-2'-yl)methyl]carbamoyl-2-O-methyl-1-O-octadecylcarbamoylglycerol iodide], in assay [1], the inhibition at 30 µM came to 100%, the inhibition at 3 µM worked out at 100% and the inhibition at 0.3 µM was found to be 41%. In the assay on PAF-induced death (setting [2]), this compound came in with a Survival rate of 77%. Also, the Survival rate with PAF-induced death (setting [3]) is given as 100%. Moreover, in the assay on HL-60 cells, the “Maximum differentiation extent: Optimal conc.” value (“Maximum differentiation extent” for short) amounted to 0.48 µg/mL and the Emax was 72%.

Consider `CCCCCCCCCCCCCCCCCCNC(=O)OCC(CN1CC(=O)N(CC[N+](C)(C)C)C1=O)OC` (stereo not drawn) [Example 115, 1-[(2-Methoxy-3-octadecylcarbamoyloxy)propyl]-3-[2-(trimethylammonio)ethyl]hydantoin chloride], for which, in assay [1], the inhibition at 30 µM came to 100%, the inhibition at 3 µM is 100% and the inhibition at 0.3 µM amounted to 9%. For the same compound, in the assay on HL-60 cells, the “Maximum differentiation extent” value was determined as 1.25 µg/mL and the Emax came to 61%.

Regarding `CCCCCCCCCCCCCCCCNC(=O)OCC(COC(=O)N(Cc1cccc[n+]1CC)C(C)=O)OC` (stereo not drawn) [Example 169, 3-[N-Acetyl-N-(N'-ethylpyridinio-2-yl)methyl]carbamoyl-1-hexadecylcarbamoyl-2-methylglycerol chloride], in assay [1], the inhibition at 30 µM is 100%, the inhibition at 3 µM is 100% and the inhibition at 0.3 µM came to 100%. In addition, in the assay on HL-60 cells, the “Maximum differentiation extent” value worked out at 0.32 µg/mL and the Emax worked out at 59%.

Turning to `CCCCCCCCCCCCCCCCCCNC(=O)OCC(COC(=O)N(CC[N+]1(C)CCCC1)C(C)=O)OC` (stereo not drawn) [Example 35, 3-O-[N-Acetyl-N-(2'-N-methylpyrrolidinioethyl)]carbamoyl-2-O-methyl-1-O-octadecylcarbamoylglycerol hydrochloride], in assay [1], the inhibition at 30 µM is 100%, the inhibition at 3 µM was determined as 100% and the inhibition at 0.3 µM was 45%. In the assay on PAF-induced death (setting [3]), this compound returned a Survival rate of 80%. In the assay with PAF-induced hypotension (0.5 mg/kg i.v.), this compound yielded a Restoration rate of 73%.

Consider `CCCCCCCCCCCCCCNC(=O)OCC(COC(=O)N(Cc1cccc[n+]1CC)C(C)=O)OC` (stereo not drawn) [Example 170, 3-[N-Acetyl-N-(N'-ethylpyridinio-2-yl)methyl]carbamoyl-2-methyl-1-tetradecylcarbamoylglycerol chloride], for which, in assay [1], the inhibition at 30 µM was 100%, the inhibition at 3 µM turned out to be 100% and the inhibition at 0.3 µM stood at 100%. Also, in the assay on HL-60 cells, the “Maximum differentiation extent” value was 0.32 µg/mL and the Emax worked out at 77%.

As to `CCCCCCCCCCCCCCCCCCOCC(COC(=O)N(CC[N+](C)(C)C)C(C)=O)OC(C)=O` (stereo not drawn) [Example 3, 2-O-Acetyl-3-O-[N-acetyl-N-(2'-trimethylammonioethyl)]carbamoyl-1-O-octadecylglycerol iodide], in assay [1], the inhibition at 1 µM was determined as 86%, the inhibition at 30 µM was found to be 100% and the inhibition at 3 µM came out at 100%. The compound also came in with a Survival rate in the assay with PAF-induced death (0.1 mg/kg i.v. 5 min before PAF 50 μg/kg i.v., control 19%) of 38%. For the same compound, the “(Mice survived)/(mice employed)” value with PAF-induced death (0.1 mg/kg i.v.) is listed as 3/8. The same compound displayed a Survival rate with PAF-induced death (1.0 mg/kg i.v. 5 min before PAF 50 μg/kg i.v., control 19%) of 100%. For the same compound, the “(Mice survived)/(mice employed)” value with PAF-induced death (1.0 mg/kg i.v.) is 8/8. For the same compound, the “prevention of PAF-induced death (conclusion)” value in the assay on PAF-induced death (0.1 and 1 mg/kg i.v.) is given as “potent drug for prevention of PAF-induced death”. The Restoration rate in the assay on PAF-induced hypotension (0.5 mg/kg i.v.) is given as 48%.

As for `CCCCCCCCCCCCCCCCCCNC(=O)OCC(COC(=O)N(Cc1cccc[n+]1CCCC)C(C)=O)OC` (stereo not drawn) [Example 177, 3-[N-Acetyl-N-(N'-butylpyridinio-2-yl)methyl]carbamoyl-1-octadecylcarbamoyl-2-methylglycerol chloride], in the assay on HL-60 cells, the “Maximum differentiation extent” value was determined as 0.48 µg/mL and the Emax amounted to 91%.

For `CCCCCCCCCCCCCCCCCCNC(=O)OCC(COC(=O)N(CC[N+](C)(C)C)C(C)=O)OC` (stereo not drawn) [Example 25, 3-O-[N-Acetyl-N-(2'-trimethylammonioethyl)]carbamoyl-2-O-methyl-1-O-octadecylcarbamoylglycerol iodide], in assay [1], the inhibition at 1 µM came out at 40%, the inhibition at 30 µM is 100% and the inhibition at 3 µM amounted to 100%. In the assay with PAF-induced death (setting [3]), this compound came in with a Survival rate of 94%. The same compound displayed a Restoration rate with PAF-induced hypotension (1.0 mg/kg i.v.) of 69%.

Turning to `CCCCCCCCCCCCCCCCCCNC(=O)OCC(COC(=O)N(Cc1cccc[n+]1C)C(C)=O)OC` (stereo not drawn) [Example 104, 3-O-[N-Acetyl-N-(N-methylpyridnio-2-yl)methyl]carbamoyl-2-O-methyl-1-O-octadecylcarbamoylglycerol chloride], in assay [1], the inhibition at 30 µM stood at 100%, the inhibition at 3 µM was 100% and the inhibition at 0.3 µM stood at 100%. The Restoration rate in the assay with PAF-induced hypotension (0.1 mg/kg i.v.) is 94%.

Consider `CCCCCCCCCCCCCCCCCCNC(=O)OCC(CNC(=O)N(Cc1cccc[n+]1C)C(C)=O)OC.[Cl-]` (stereo not drawn) [Example 106, 1-Methyl-2-[N-acetyl-N'-(3-octadecylcarbamoyloxy-2-methoxypropyl)ureido]methylpyridinium chloride], for which, in the assay on HL-60 cells, the “Maximum differentiation extent” value came to 1.88 µg/mL and the Emax stood at 78%.

As to `CCCCCCCCCCCCCCCCCCNC(=O)OCC(COC(=O)N(CC[N+]1(C)CCCC1)C(=O)OC)OC` (stereo not drawn) [Example 43, 3-O-[N-Methoxycarbonyl-N-(2'-N-methylpyrrolidinioethyl)]carbamoyl-2-O-methyl-1-O-octadecylcarbamoylglycerol iodide], in assay [1], the inhibition at 30 µM was 100% and the inhibition at 3 µM was determined as 100%. In the assay with PAF-induced death (setting [3]), this compound showed a Survival rate of 100%. In the assay with PAF-induced hypotension (0.5 mg/kg i.v.), this compound came in with a Restoration rate of 83%.

Turning to `CCCCCCCCCCCCCCCCCCOCC(CN1CC(=O)N(CC[N+](C)(C)C)C1=O)OC(C)=O` (stereo not drawn) [Example 91, 1-[1-(2-Acetoxy-3-ocatadecyloxy)propyl]-3-(2-trimethylammonioethyl)hydantoin chloride.], in assay [1], the inhibition at 30 µM turned out to be 100%, the inhibition at 3 µM is 100% and the inhibition at 0.3 µM was determined as 78%. Moreover, the Survival rate in the assay with PAF-induced death (setting [3]) is 100%. In addition, the Restoration rate with PAF-induced hypotension (0.5 mg/kg i.v.) turned out to be 77%.

Consider `CCCCCCCCCCCCCCCCCCOCC(CN1CC(=O)N(CC[n+]2ccsc2)C1=O)OC(C)=O` (stereo not drawn) [Example 92, 1-[1-(2-Acetoxy-3-octadecyloxy)propyl]-3-(2-thiazolioethyl)hydantoin chloride], for which, in assay [1], the inhibition at 30 µM turned out to be 100%. In addition, the inhibition at 3 µM in assay [1] came out at 100%. Moreover, the Survival rate turned out to be 77% with PAF-induced death (setting [2]) and 100% in the assay on PAF-induced death (setting [3]). For the same compound, the Restoration rate with PAF-induced hypotension (0.5 mg/kg i.v.) is 77%.

The values are drawn from US4737518A, “Lipid derivatives, their production and use” (Takeda Chemical Industries, Ltd., priority 1984, dated 1988).
